Assay: Phase (ii) testing: UV irradiation of drug with photoinitiator (radical generation), drug recovery by HPLC
Assay type: physicochemical
Details: sensitive = degrades more than 5% with radical generation at 12 J/cm^2
From the text: As used herein, the term sensitive pharmaceutical compounds is to be interpreted as compounds that degrade for more than 5% in an environment with radical generation at 12 J/cm^2 irradiation. More in particular, the pharmaceutical can be sensitive during polymerisation that can be initiated with UV or visible light (200-700 nm) or with electron beam or gamma radiation, and without or up to 10% radical generating species (initiator) present. If an initiator is present, it is preferably about 1-10 wt % of a photoinitiator. In addition to photoinitiators, the system may comprise also a thermal initiator (for example peroxide and/or redox initiators). Preferably a radiation sensitive (photo)initiator is used, for example a Norrish Type I or Type II initiator. It is possible to work in the absence of these radical generating species where electron beam or gamma radiation is used or in the case where unsaturated compounds (one compound whose double bond is electron rich and another compound whose double bond is electron poor) react with each other via a donor-acceptor complex to form a polymer.
Potential degradation can be measured by dissolving 100 ppm (0.1 g/l) pharmaceutical compound in a suitable solvent in a quartz, glass or HPLC vessel. One series of vessels is used as such. In a second series of vessels, the one or more initiators, preferably those used in the polymerization mixture, are added in the same amount as the pharmaceutical compound. Next, the vessels are subjected to irradiation at 2 and 12 J/cm^2. As an example, UV radiation can be performed with a lab UV source Bluepoint 2, equipped with a D-bulb D65 and directed onto the sample by a UV light guide. The output from the guide is 200 mW/cm^2 (200 mJ/cm^2 per second) as measured with a Solascope 1 UV spectrometer. A dose of 2 and 12 J/cm^2 was achieved by irradiating 10 and 60 seconds, respectively. The choice of irradiation system could be governed by the applications or processing considerations that typically influence hardware use in a laboratory, hospital or manufacturing environment. […]
The recovery could be analysed by HPLC. […] UV spectra of the drugs before and after UV irradiation (at both 2 and 12 J/cm^2) had identical shapes, meaning that the HPLC method could be used to quantitatively measure changes in drug concentrations. Any degradation would be calculated as: minus the percentage of recovered API.
UV irradiation of drug-containing solutions (see below) was performed with a lab UV source Dr. Hoenle Bluepoint 2, equipped with a D-bulb, directed onto the (open) HPLC vials (2 ml) by a UV light guide (200 mW/cm^2; 200 mJ/cm^2 per second as measured with Solascope 1 UV emission spectrometer). […]

Row | radical sensitivity in the current testing method | Structure (SMILES)
1 | radical sensitive | COc1cc2nc(N3CCN(C(=O)c4ccco4)CC3)nc(N)c2cc1OC [Prazosin ®, Prazosin]
2 | radical sensitive | O=C(N[C@H](CO)[C@H](O)c1ccc([N+](=O)[O-])cc1)C(Cl)Cl [Chloroamphenicol]
3 | radical sensitive | COc1cc2nc(N3CCN(C(=O)C4CCCO4)CC3)nc(N)c2cc1OC (stereo not shown) [Terazosin ®, Terazosin]
4 | radical sensitive | CCCCc1oc2ccccc2c1C(=O)c1cc(I)c(OCCN(CC)CC)c(I)c1 [Amiodarone ®, Amiodarone]

Source: patent US20100068252A1, “METHOD FOR PREPARING POLYMERIC MATRICES BY RADIATION IN THE PRESENCE OF SENSITIVE PHARMACEUTICAL COMPOUNDS” (DSM IP ASSETS B.V., priority 2006, published 2010)
